Laboratory results as given in patent US8748426B2, “Inhibitors of diacylglycerol acyl transferase” (Piramal Enterprises Limited, priority 2009, dated 2014).

target: T1, hDGAT1 (Homo sapiens, UniProt O75907); assay: In-vitro DGAT1 assay (14C oleoyl CoA, hDGAT1 microsomes from Sf9 cells); conditions: at 1 μM
T1 sequence (O75907 1-488): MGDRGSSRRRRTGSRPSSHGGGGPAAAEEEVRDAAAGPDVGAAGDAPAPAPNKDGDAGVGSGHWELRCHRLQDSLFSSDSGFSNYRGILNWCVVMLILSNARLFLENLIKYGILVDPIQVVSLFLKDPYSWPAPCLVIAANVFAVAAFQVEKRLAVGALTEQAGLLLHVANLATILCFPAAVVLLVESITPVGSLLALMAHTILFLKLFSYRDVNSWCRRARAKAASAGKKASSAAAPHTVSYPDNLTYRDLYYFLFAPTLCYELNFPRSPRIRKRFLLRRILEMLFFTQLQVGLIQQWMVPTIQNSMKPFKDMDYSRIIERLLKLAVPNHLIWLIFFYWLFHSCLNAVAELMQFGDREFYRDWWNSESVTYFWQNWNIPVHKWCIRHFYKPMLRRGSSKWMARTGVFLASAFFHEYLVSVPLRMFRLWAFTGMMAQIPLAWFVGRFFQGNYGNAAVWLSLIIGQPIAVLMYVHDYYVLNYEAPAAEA

**Q.** With “(S)-2-(5-(4-(3-(2-Fluorophenyl)thioureido)phenyl)-1-oxoisoindolin-2-yl)-3-methylbutanoic acid [Example 257]” as the compound, how does the “% Inhibition of hDGAT1” value read?
**A.** + (10-50% Inhibition)

**Q.** With `O=C(Nc1ccc(-c2ccc3c(c2)C(=O)N(C24C[C@@H]5C[C@@H](CC(C(=O)O)(C5)C2)C4)C3)cc1)c1cccc(Cl)c1` [Example 567, (1r,3s,5R,7S)-3-(6-(4-(3-Chlorobenzamido)phenyl)-1-oxoisoindolin-2-yl)adamantane-1-carboxylic acid] as the compound, how does the “% Inhibition of hDGAT1” value read?
**A.** + (10-50% Inhibition)

**Q.** For `CC(C)[C@@H](C(=O)O)N1Cc2ccc(-c3ccc(NC(=O)c4ccc(-c5ccccc5)cc4)c(F)c3)cc2C1=O` [Example 448, (S)-2-(6-(4-Biphenyl-4-ylcarboxamido-3-fluorophenyl)-1-oxoisoindolin-2-yl)-3-methylbutanoic acid], which “% Inhibition of hDGAT1” value is on record?
**A.** ++ (>50% Inhibition)

**Q.** For `CC(C)[C@@H](C(=O)O)N1Cc2cc(-c3ccc(NC(=S)Nc4ccc(C#N)cc4)cc3)ccc2C1=O` [Example 269, (S)-2-(5-(4-(3-(4-Cyanophenyl)thioureido)phenyl)-1-oxoisoindolin-2-1)-3-methyl butanoic acid], which “% Inhibition of hDGAT1” value is on record?
**A.** + (10-50% Inhibition)

**Q.** How did the “% Inhibition of hDGAT1” value turn out when `CC(C)[C@@H](C(=O)O)N1Cc2ccc(-c3ccc(NC(=O)c4ccc(-c5ccccc5)cc4)cc3C(F)(F)F)cc2C1=O` [Example 426, (S)-2-(6-(4-Biphenyl-4-ylcarboxamido-2-(trifluoromethyl)phenyl)-1-oxoisoindolin-2-yl)-3-methylbutanoic acid] was run?
**A.** + (10-50% Inhibition)

same assay, conditions: read-out: % Inhibition of hDGAT1

**Q.** How did the inhibition at 1 µM turn out when `COc1ccccc1NC(=S)Nc1ccc(-c2ccc3c(c2)C(=O)N([C@H](C(=O)O)C(C)C)C3)cc1` [Example 74, (S)-2-(6-(4-(3-(2-Methoxyphenyl)thioureido)phenyl)-1-oxoisoindolin-2-yl)-3-methylbutanoic acid] was run?
**A.** 10 to 50%

**Q.** `CC(C)[C@@H](C(=O)O)N1Cc2ccc(-c3ccc(NC(=O)c4ccc(C(C)(C)C)cc4)cc3Cl)cc2C1=O` [Example 480, (S)-2-(6-(4-(4-tert-Butylbenzamido)-2-chlorophenyl)-1-oxoisoindolin-2-yl)-3-methylbutanoic acid] was tested. Which inhibition at 1 µM did it give?
**A.** > 50%

**Q.** Which inhibition at 1 µM does the source give for `Cc1oc(-c2ccccc2)nc1C(=O)Nc1ccc(-c2ccc3c(c2)C(=O)N([C@H](C(=O)O)C(C)C)C3)cc1` [Example 643, (S)-3-Methyl-2-(6-(4-(5-methyl-2-phenyloxazole-4-carboxamido)phenyl)-1-oxoisoindolin-2-yl)butanoic acid] here?
**A.** > 50%

**Q.** Which inhibition at 1 µM does the source give for `COc1ccc(NC(=O)Nc2ccc(-c3ccc4c(c3)CN([C@H](C(=O)O)C(C)C)C4=O)cc2)cc1` [Example 249, (S)-2-(5-(4-(3-(4-Methoxyphenyl)ureido)phenyl)-1-oxoisoindolin-2-yl)-3-methylbutanoic acid] here?
**A.** > 50%

**Q.** `CC(C)[C@@H](C(=O)O)N1Cc2ccc(-c3ccc(NC(=O)c4ncc(-c5ccccc5)s4)cn3)cc2C1=O` [Example 637, (S)-3-Methyl-2-(1-oxo-6-(5-(5-phenylthiazole-2-carboxamido)pyridin-2-yl)isoindolin-2-yl)butanoic acid] was tested. Which inhibition at 1 µM did it give?
**A.** > 50%

**Q.** For `CC(C)[C@@H](C(=O)O)N1Cc2cc(-c3ccc(NC(=O)Nc4ccc(F)c(F)c4)cc3)ccc2C1=O` [Example 239, (S)-2-(5-(4-(3-(3,4-Difluorophenyl)ureido)phenyl)-1-oxoisoindolin-2-yl)-3-methylbutanoic acid], which inhibition at 1 µM is on record?
**A.** > 50%

**Q.** Which inhibition at 1 µM does the source give for `CC(C)[C@@H](C(=O)O)N1Cc2ccc(-c3ccc(NC(=O)c4cccc5ccccc45)cc3)cc2C1=O` [Example 178, (S)-2-(6-(4-(1-Naphthamido)phenyl)-1-oxoisoindolin-2-yl)-3-methylbutanoic acid] here?
**A.** 10 to 50%

**Q.** How did the inhibition at 1 µM turn out when `CCCCCCCCc1ccc(C(=O)Nc2ccc(-c3ccc4c(c3)C(=O)N([C@H](C(=O)O)C(C)C)C4)cc2)cc1` [Example 172, (S)-3-Methyl-2-(6-(4-(4-octylbenzamido)phenyl)-1-oxoisoindolin-2-yl)butanoic acid] was run?
**A.** > 50%

**Q.** With `CC(C)[C@@H](C(=O)O)N1Cc2ccc(-c3ccc(NC(=O)c4ccccc4Oc4ccccc4)cc3)cc2C1=O` [Example 152, (S)-3-Methyl-2-(1-oxo-6-(4-(2-phenoxybenzamido)phenyl)isoindolin-2-yl)butanoic acid] as the compound, how does the inhibition at 1 µM read?
**A.** > 50%

**Q.** With `CC(C)[C@H](C(=O)O)N1Cc2cc(-c3ccc(NC(=O)Nc4cccc(C(F)(F)F)c4)cc3)ccc2C1=O` [Example 361, (R)-3-Methyl-2-(1-oxo-5-(4-(3-(3-(trifluoromethyl)phenyl)ureido)phenyl)isoindolin-2-yl)butanoic acid] as the compound, how does the inhibition at 1 µM read?
**A.** 10 to 50%

**Q.** With `COc1ccc(OC)c(C(=O)Nc2ccc(-c3ccc4c(c3)C(=O)N([C@H](C(=O)O)C(C)C)C4)cc2)c1` [Example 180, (S)-2-(6-(4-(3,6-Dimethoxybenzamido)phenyl)-1-oxoisoindolin-2-yl)-3-methyl butanoic acid] as the compound, how does the inhibition at 1 µM read?
**A.** > 50%

**Q.** For `CCCCCc1ccc(C(=O)Nc2ccc(-c3ccc4c(c3)C(=O)N([C@H](C(=O)O)C(C)C)C4)c(Cl)c2)cc1` [Example 486, (S)-2-(6-(2-Chloro-4-(4-pentylbenzamido)phenyl)-1-oxoisoindolin-2-yl)-3-methylbutanoic acid], which inhibition at 1 µM is on record?
**A.** > 50%

**Q.** With `Cc1cc(NC(=O)c2ccc(OC(F)(F)F)cc2)ccc1-c1ccc2c(c1)C(=O)N([C@H](C(=O)O)C(C)C)C2` [Example 476, (S)-3-Methyl-2-(6-(2-methyl-4-(4-(trifluoromethoxy)benzamido)phenyl)-1-oxoisoindolin-2-yl)butanoic acid] as the compound, how does the inhibition at 1 µM read?
**A.** > 50%

**Q.** How did the inhibition at 1 µM turn out when `O=C(Nc1ccc(-c2ccc3c(c2)CN(C2(C(=O)O)CCCC2)C3=O)cc1)Nc1cccc(C(F)(F)F)c1` [Example 370, 1-(1-Oxo-5-(4-(3-(3-(trifluoromethyl)phenyl)ureido)phenyl)isoindolin-2-yl)cyclopentanecarboxylic acid] was run?
**A.** 10 to 50%

**Q.** With `COc1cc(NC(=O)c2ccc(C(C)(C)C)cc2)ccc1-c1ccc2c(c1)C(=O)N([C@H](C(=O)O)C(C)C)C2` [Example 456, (S)-2-(6-(4-(4-tert-Butylbenzamido)-2-methoxyphenyl)-1-oxoisoindolin-2-yl)-3-methylbutanoic acid] as the compound, how does the inhibition at 1 µM read?
**A.** 10 to 50%

**Q.** Which inhibition at 1 µM does the source give for `CC(C)[C@@H](C(=O)O)N1Cc2ccc(-c3ccc(NC(=O)Nc4ccccc4Oc4ccccc4)cc3)cc2C1=O` [Example 48, (S)-3-Methyl-2-(1-oxo-6-(4-(3-(2-phenoxyphenyl)ureido)phenyl)isoindolin-2-yl)butanoic acid] here?
**A.** > 50%

**Q.** How did the inhibition at 1 µM turn out when `CCCCCc1ccc(C(=O)Nc2ccc(-c3ccc4c(c3)C(=O)N([C@H](C(=O)O)C(C)C)C4)c(C(F)(F)F)c2)cc1` [Example 430, (S)-3-Methyl-2-(1-oxo-6-(4-(4-pentylbenzamido)-2-(trifluoromethyl)phenyl)isoindolin-2-yl)butanoic acid] was run?
**A.** 10 to 50%

**Q.** `CC(C)[C@@H](C(=O)O)N1Cc2ccc(-c3ccc(NC(=O)c4ccc(Cl)cc4)cc3)cc2C1=O` [Example 114, (S)-2-(6-(4-(4-Chlorobenzamido)phenyl)-1-oxoisoindolin-2-yl)-3-methylbutanoic acid] was tested. Which inhibition at 1 µM did it give?
**A.** > 50%

**Q.** `CC(C)[C@@H](C(=O)O)N1Cc2cc(-c3ccc(NC(=O)c4ccc(C(C)(C)C)cc4)cc3)ccc2C1=O` [Example 323, (S)-2-(5-(4-(4-tert-Butylbenzamido)phenyl)-1-oxoisoindolin-2-yl)-3-methyl butanoic acid] was tested. Which inhibition at 1 µM did it give?
**A.** 10 to 50%

**Q.** How did the inhibition at 1 µM turn out when `CCCCOc1ccc(C(=O)Nc2ccc(-c3ccc4c(c3)C(=O)N([C@H](C(=O)O)C(C)C)C4)cc2)cc1` [Example 136, (S)-2-(6-(4-(4-Butoxybenzamido)phenyl)-1-oxoisoindolin-2-yl)-3-methyl butanoic acid] was run?
**A.** > 50%

**Q.** For `CC(C)[C@@H](C(=O)O)N1Cc2ccc(-c3ccc(NC(=S)Nc4cccc(C#N)c4)cc3)cc2C1=O` [Example 70, (S)-2-(6-(4-(3-(3-Cyanophenyl)thioureido)phenyl)-1-oxoisoindolin-2-yl)-3-methylbutanoic acid], which inhibition at 1 µM is on record?
**A.** 10 to 50%

**Q.** For `COc1ccc(S(=O)(=O)Nc2ccc(-c3ccc4c(c3)C(=O)N([C@H](C(=O)O)C(C)C)C4)cc2)cc1` [Example 90, (S)-2-(6-(4-(4-Methoxyphenylsulfonamido)phenyl)-1-oxoisoindolin-2-yl)-3-methylbutanoic acid], which inhibition at 1 µM is on record?
**A.** 10 to 50%

**Q.** `CC(C)[C@@H](C(=O)O)N1Cc2ccc(-c3ccc(NC(=O)Nc4ccc5c(c4)CCC5)cc3C(F)(F)F)cc2C1=O` [Example 420, (S)-2-(6-(4-(3-(2,3-Dihydro-1H-inden-5-yl)ureido)-2-(trifluoromethyl)phenyl)-1-oxoisoindolin-2-yl)-3-methylbutanoic acid] was tested. Which inhibition at 1 µM did it give?
**A.** 10 to 50%

**Q.** Which inhibition at 1 µM does the source give for `CC(C)[C@@H](C(=O)O)N1Cc2ccc(-c3ccc(NC(=O)C4CCCCC4)cc3)cc2C1=O` [Example 118, (S)-2-(6-(4-(Cyclohexanecarboxamido)phenyl)-1-oxoisoindolin-2-yl)-3-methylbutanoic acid] here?
**A.** > 50%

**Q.** For `Cc1cccc(NC(=O)Nc2ccc(-c3ccc4c(c3)CN([C@H](C(=O)O)C(C)C)C4=O)cc2)c1` [Example 243, (S)-3-Methyl-2-(1-oxo-5-(4-(3-m-tolylureido)phenyl)isoindolin-2-yl)butanoic acid], which inhibition at 1 µM is on record?
**A.** > 50%

**Q.** How did the inhibition at 1 µM turn out when `CC(C)[C@@H](C(=O)O)N1Cc2ccc(-c3ccc(NC(=O)c4c(F)cccc4C(F)(F)F)cc3)cc2C1=O` [Example 126, (S)-2-(6-(4-(2-Fluoro-6-(trifluoromethyl)benzamido)phenyl)-1-oxoisoindolin-2-yl)-3-methylbutanoic acid] was run?
**A.** 10 to 50%
